Tests used:
8-MG-BA (Glioblastoma) = experiment: Bliss excess, mean over the matrix (fraction); higher = more synergy
Procedure, shortened: (§1)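 Cell lines in DMEM/F12 or RPMI with 10% FBS were plated in 1536-well plates, held 24 hours at 37°C, 5% CO2, then given two-drug dose matrices for 72 hours (DMSO typically 0.2%). Viability was read by CellTiter-Glo 2.0 luminescence and scaled as inhibition from 0 (vehicle wells) to 1 (blank wells). Combination Emax is the second-highest inhibition in the matrix; Bliss excess is observed combination effect minus expected EA + EB − EA·EB, EA and EB being single-agent effects.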

[1] = system: A549 (Lung Adenocarcinoma); experiment: as above
Procedure, shortened: as §1

[2] = system: COLO-320-HSR (Colorectal Carcinoma); experiment: as above
Procedure, shortened: as §1

[3] = system: ECC10 (Gastric Carcinoma); experiment: as above
Procedure, shortened: as §1

[4] = system: HCC1954 (Breast Carcinoma); experiment: as above
Procedure, shortened: as §1

IGR-37 (Melanoma) = experiment: as above
Procedure, shortened: as §1

LN-405 (Glioblastoma) = experiment: as above
Procedure, shortened: as §1

[5] = system: MDST8 (Colorectal Carcinoma); experiment: as above
Procedure, shortened: as §1

[6] = system: NCI-H1693 (Lung Adenocarcinoma); experiment: as above
Procedure, shortened: as §1

[7] = system: NCI-H2141 (Small Cell Lung Carcinoma); experiment: as above
Procedure, shortened: as §1

[8] = system: NCI-H64 (Small Cell Lung Carcinoma); experiment: as above
Procedure, shortened: as §1

NY (Osteosarcoma) = experiment: as above
Procedure, shortened: as §1

[9] = system: OS-RC-2 (Kidney Carcinoma); experiment: as above
Procedure, shortened: as §1

PA-1 (Ovarian Carcinoma) = experiment: as above
Procedure, shortened: as §1

[10] = system: PANC-10-05 (Pancreatic Carcinoma); experiment: as above
Procedure, shortened: as §1

[11] = system: TT2609-C02 (Thyroid Gland Carcinoma); experiment: as above
Procedure, shortened: as §1

[12] = system: VCaP (Prostate Carcinoma); experiment: as above
Procedure, shortened: as §1

FU97 (Gastric Carcinoma) = experiment: combination Emax (second highest fraction inhibited in the dose matrix, 72 h); higher = more inhibition; extreme values may be limits of the assay
Procedure, shortened: as §1

[13] = system: HCC1954 (Breast Carcinoma); experiment: as above
Procedure, shortened: as §1

[14] = system: NCI-H1666 (Lung Adenocarcinoma); experiment: as above
Procedure, shortened: as §1
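Wherever Bliss excess, mean over the matrix is given: after 72 h of two-drug dosing.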

COc1cccc(OCCCN)c1-c1cc(Nc2cnc(C#N)cn2)n[nH]1 [Prexasertib] + Cc1cc2ncnn2cc1Nc1ncc2c(n1)n(C1CCOCC1)c(=O)n2C [AZD7648] (first compound max 1 µM, 7x7, partner max 10 µM)
Bliss excess (8-MG-BA (Glioblastoma)): -0.058 | Bliss excess [1]: 0.0532 | Bliss excess [2]: -0.0037 | Bliss excess [3]: 0.006 | Bliss excess [4]: -0.0179 | Bliss excess (IGR-37 (Melanoma)): -0.058 | Bliss excess (LN-405 (Glioblastoma)): -0.017 | Bliss excess [5]: -0.0217 | Bliss excess [6]: 0.0337 | Bliss excess [7]: -0.0315 | Bliss excess [8]: -0.0242 | Bliss excess (NY (Osteosarcoma)): -0.0328 | Bliss excess [9]: -0.0226 | Bliss excess (PA-1 (Ovarian Carcinoma)): 0.0205 | Bliss excess [10]: -0.038 | Bliss excess [11]: -0.0157 | Bliss excess [12]: -0.0509 | combination Emax (FU97 (Gastric Carcinoma)): 0.367 | combination Emax [13]: 0.843 | combination Emax [14]: 0.334

C[C@@H](c1ccc2nccn2c1)n1nnc2ncc(-c3cnn(C)c3)nc21 [Savolitinib] + Cc1c2c(nn1C)CSCc1cc(n(C)n1)CSc1cc(c3ccccc3c1)OCCCc1c(C(=O)O)n(C)c3c-2c(Cl)ccc13 [AZD5991] (first compound max 1 µM, 7x7, partner max 1 µM)
Bliss excess (8-MG-BA (Glioblastoma)): -0.0303 | Bliss excess [1]: -0.0279 | Bliss excess [2]: -0.0464 | Bliss excess [3]: 0.0229 | Bliss excess [4]: -0.0525 | Bliss excess (IGR-37 (Melanoma)): 0.0454 | Bliss excess (LN-405 (Glioblastoma)): 0.0023 | Bliss excess [5]: -0.0413 | Bliss excess [6]: -0.0684 | Bliss excess [7]: -0.0107 | Bliss excess [8]: -0.021 | Bliss excess (NY (Osteosarcoma)): -0.0288 | Bliss excess [9]: -0.0561 | Bliss excess (PA-1 (Ovarian Carcinoma)): -0.0266 | Bliss excess [10]: -0.0994 | Bliss excess [11]: -0.0947 | Bliss excess [12]: -0.0422 | combination Emax (FU97 (Gastric Carcinoma)): 0.164 | combination Emax [13]: 0.85 | combination Emax [14]: 0.178

From the supplement of paper PMC11061612
